# Results taken from ChEMBL document CHEMBL1201862, “PubChem BioAssay data set” (2004).
# Where a name gives a salt, the structure may show the parent alone. The source made the active and inactive calls.
# What was measured:
# Beta-lactamase [1] = target: Beta-lactamase (Salmonella choleraesuis (strain SC-B67), UniProt Q5J463); experiment: Epi-absorbance-based counterscreen for selective VIM-2 inhibitors: dose response biochemical high throughput screening assay to identify inhibitors of TEM-1 serine-beta-lactamase.
# Chain of Beta-lactamase (Salmonella choleraesuis (strain SC-B67), UniProt Q5J463) (Q5J463 whole entry): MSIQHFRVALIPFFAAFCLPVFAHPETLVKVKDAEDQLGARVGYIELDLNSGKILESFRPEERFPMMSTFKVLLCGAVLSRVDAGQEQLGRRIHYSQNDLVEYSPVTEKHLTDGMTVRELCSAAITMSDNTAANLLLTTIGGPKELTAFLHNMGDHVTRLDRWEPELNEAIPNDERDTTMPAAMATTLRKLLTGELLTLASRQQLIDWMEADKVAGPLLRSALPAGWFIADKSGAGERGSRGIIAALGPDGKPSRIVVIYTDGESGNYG
# Beta-lactamase [2] = target: T1, Beta-lactamase (Pseudomonas aeruginosa, UniProt Q79MP6); experiment: IMP-1 metallo-beta-lactamase inhibitors, dose response, selectivity assay for VIM-2 inhibitor project, biochemical, epi-absorbance (AID 1920)
# T1 sequence (Q79MP6 whole entry): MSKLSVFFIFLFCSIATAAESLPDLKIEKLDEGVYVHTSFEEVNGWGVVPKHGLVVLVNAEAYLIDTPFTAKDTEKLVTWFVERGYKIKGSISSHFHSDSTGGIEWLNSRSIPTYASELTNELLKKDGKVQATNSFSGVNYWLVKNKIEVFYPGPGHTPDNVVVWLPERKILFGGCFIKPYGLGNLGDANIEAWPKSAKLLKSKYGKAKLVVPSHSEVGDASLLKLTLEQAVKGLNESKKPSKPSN
# Beta-lactamase [3] = target: T1, Beta-lactamase; experiment: […] counterscreen for selective VIM-2 inhibitors: dose response biochemical high throughput screening assay to identify inhibitors of IMP-1 metallo-beta-lactamase.
# [4] = target: G-protein coupled receptor 55 (Homo sapiens, UniProt Q9Y2T6); experiment: GPR55 antagonists blocking LPI-driven arrestin recruitment, primary screen, imaging, U2OS, beta-arrestin-GFP, LPI agonist (AID 2013); type: functional;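 also: antagonist potency measured as reduced agonist-driven arrestin aggregation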
# [5] = target: T2, Carboxy-terminal domain RNA polymerase II polypeptide A small phosphatase 1 (Homo sapiens, UniProt Q9GZU7); experiment: inhibitors of CTDSP1, concentration-response testing, biochemical assay, absorbance-based, actives from ultra-high-throughput screening (AID 540297); type: functional
# T2 sequence (Q9GZU7 whole entry): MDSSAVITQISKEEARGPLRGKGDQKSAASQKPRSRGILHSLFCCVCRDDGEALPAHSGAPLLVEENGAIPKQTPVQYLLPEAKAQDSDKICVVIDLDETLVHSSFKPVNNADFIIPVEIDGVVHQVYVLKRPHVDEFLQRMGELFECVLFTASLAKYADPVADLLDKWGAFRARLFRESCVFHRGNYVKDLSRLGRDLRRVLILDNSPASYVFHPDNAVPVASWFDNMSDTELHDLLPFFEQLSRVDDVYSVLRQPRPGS
# [6] = target: DNA (cytosine-5)-methyltransferase 1 (Homo sapiens, UniProt P26358); experiment: DNMT1 methyltransferase inhibitors, confirmation, biochemical, fluorescent molecular beacon (AID 602386); type: functional
# Chain of DNA (cytosine-5)-methyltransferase 1 (P26358 whole entry): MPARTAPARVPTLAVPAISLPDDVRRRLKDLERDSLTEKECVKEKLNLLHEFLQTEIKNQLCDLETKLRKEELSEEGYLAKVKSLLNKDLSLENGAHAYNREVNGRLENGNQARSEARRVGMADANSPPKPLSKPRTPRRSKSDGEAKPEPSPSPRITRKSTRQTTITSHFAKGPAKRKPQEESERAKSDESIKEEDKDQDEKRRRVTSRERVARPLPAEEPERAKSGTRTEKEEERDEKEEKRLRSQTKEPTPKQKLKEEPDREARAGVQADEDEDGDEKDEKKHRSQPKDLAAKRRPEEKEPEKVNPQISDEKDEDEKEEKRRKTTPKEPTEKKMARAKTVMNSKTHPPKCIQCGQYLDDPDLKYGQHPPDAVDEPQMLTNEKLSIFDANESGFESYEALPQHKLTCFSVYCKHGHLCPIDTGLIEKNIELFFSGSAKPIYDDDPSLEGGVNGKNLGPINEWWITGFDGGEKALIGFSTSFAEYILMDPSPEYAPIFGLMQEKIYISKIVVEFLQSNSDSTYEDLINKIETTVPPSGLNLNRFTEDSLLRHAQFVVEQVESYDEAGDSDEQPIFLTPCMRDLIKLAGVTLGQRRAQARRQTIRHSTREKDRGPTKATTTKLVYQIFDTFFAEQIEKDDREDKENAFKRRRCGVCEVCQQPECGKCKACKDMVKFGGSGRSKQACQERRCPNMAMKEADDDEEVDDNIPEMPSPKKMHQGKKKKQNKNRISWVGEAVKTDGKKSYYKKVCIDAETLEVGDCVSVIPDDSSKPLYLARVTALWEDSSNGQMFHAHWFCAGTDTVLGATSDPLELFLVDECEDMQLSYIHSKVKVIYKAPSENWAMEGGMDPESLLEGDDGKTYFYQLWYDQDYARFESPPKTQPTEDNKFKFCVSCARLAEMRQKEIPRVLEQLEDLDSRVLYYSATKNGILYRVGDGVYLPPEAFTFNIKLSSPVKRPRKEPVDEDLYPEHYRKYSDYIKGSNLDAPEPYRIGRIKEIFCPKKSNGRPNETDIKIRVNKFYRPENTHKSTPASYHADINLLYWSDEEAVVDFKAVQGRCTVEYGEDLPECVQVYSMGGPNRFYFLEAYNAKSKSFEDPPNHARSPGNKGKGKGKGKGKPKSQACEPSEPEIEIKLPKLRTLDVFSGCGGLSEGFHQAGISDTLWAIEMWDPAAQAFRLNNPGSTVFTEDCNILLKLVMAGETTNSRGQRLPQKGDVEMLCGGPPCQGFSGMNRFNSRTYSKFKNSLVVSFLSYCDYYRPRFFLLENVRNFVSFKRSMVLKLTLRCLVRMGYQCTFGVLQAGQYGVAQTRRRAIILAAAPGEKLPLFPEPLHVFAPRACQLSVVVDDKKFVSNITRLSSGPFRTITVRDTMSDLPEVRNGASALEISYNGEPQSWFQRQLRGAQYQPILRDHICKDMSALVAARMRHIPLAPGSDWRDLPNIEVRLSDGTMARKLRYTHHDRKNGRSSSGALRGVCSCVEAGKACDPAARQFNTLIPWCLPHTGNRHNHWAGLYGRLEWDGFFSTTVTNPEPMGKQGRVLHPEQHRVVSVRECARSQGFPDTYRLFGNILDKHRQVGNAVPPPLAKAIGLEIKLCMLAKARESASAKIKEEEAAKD
# [7] = target: 26S proteasome non-ATPase regulatory subunit 14 (Homo sapiens, UniProt O00487); experiment: inhibition of proteasome subunit RPN11 – biochemical, fluorescence polarization, uHTS hits, confirmation (AID 602368); type: functional
# [8] = target: 72 kDa type IV collagenase (Homo sapiens, UniProt P08253); experiment: Dose Response validation of uHTS RPN11 inhibitor hits using a MMP-2 Fluorescence assay.; type: functional
# Prothrombin = Prothrombin (Bos taurus, UniProt P00735); experiment: thrombin inhibition, dose response, biochemical, fluorescence polarization, uHTS hits (AID 602369); type: functional
# [9] = target: T3, Histone-lysine N-methyltransferase NSD2 (Homo sapiens, UniProt O96028); type: biochemical
# T3 sequence (O96028 whole entry): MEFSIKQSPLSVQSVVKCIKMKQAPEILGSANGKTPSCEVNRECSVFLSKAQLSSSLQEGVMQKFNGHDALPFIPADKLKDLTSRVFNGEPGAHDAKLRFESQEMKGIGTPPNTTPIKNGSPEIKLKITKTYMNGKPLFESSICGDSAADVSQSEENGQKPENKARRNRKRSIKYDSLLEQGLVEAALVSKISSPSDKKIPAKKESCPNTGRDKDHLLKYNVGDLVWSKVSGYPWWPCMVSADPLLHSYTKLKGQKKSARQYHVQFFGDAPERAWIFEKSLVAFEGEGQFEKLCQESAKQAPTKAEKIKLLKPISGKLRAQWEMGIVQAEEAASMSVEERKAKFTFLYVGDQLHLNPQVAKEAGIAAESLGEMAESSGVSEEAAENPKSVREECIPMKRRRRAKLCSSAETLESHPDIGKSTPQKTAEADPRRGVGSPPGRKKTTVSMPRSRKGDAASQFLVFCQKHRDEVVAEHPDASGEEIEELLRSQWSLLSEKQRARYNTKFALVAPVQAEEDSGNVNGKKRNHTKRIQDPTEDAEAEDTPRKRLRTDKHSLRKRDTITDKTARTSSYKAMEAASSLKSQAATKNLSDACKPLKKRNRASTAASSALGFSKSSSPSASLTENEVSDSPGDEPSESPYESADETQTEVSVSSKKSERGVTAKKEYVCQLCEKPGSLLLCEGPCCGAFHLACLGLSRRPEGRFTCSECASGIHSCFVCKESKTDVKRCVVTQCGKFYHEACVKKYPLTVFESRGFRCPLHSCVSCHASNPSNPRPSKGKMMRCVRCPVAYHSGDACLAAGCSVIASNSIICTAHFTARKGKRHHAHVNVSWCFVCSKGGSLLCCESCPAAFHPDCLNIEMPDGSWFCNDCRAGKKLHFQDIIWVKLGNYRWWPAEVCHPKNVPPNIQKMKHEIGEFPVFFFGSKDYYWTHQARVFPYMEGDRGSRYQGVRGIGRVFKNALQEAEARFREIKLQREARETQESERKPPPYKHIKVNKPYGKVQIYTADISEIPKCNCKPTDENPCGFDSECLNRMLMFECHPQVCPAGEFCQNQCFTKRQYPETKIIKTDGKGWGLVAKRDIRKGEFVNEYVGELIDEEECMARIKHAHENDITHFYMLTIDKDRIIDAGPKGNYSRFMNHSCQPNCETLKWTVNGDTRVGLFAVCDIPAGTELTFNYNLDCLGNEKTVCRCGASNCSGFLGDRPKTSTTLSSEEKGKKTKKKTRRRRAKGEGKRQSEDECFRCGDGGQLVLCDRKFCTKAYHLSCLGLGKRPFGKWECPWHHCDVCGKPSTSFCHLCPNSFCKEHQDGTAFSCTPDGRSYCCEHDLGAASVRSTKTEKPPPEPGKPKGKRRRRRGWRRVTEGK
# [10] = target: Mitochondrial peptide methionine sulfoxide reductase (Bos taurus, UniProt P54149); type: functional;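 also: absorbance read-out, biochemical high-throughput dose-response screen for MsrA inhibitors, confirmatory; recombinant bovine MsrA coupled to E. coli TrxB with NADPH and selenocystamine; potency is for inhibitors of MsrA activity on DMSO substrate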
# Chain of Mitochondrial peptide methionine sulfoxide reductase (P54149 whole entry): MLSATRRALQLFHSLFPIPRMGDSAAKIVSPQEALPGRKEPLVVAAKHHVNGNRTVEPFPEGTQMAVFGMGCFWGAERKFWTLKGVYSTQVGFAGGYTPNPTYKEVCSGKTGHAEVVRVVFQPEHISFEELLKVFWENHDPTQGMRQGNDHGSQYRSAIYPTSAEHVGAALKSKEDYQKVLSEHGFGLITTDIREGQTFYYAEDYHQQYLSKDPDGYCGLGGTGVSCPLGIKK
# [11] = target: T4, ATP-dependent translocase ABCB1 (Homo sapiens, UniProt P08183); experiment: ABCG2 efflux pump inhibitor potency, dose response, Ig-MXP3 cells, JC-1, flow cytometry, set 2 (AID 504566); type: functional; settings: read-out: EC50_MICROM_;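 also: flow cytometry median green fluorescence of retained JC-1 dye; potency of efflux pump inhibition measured as rising substrate retention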
# T4 sequence (P08183 whole entry): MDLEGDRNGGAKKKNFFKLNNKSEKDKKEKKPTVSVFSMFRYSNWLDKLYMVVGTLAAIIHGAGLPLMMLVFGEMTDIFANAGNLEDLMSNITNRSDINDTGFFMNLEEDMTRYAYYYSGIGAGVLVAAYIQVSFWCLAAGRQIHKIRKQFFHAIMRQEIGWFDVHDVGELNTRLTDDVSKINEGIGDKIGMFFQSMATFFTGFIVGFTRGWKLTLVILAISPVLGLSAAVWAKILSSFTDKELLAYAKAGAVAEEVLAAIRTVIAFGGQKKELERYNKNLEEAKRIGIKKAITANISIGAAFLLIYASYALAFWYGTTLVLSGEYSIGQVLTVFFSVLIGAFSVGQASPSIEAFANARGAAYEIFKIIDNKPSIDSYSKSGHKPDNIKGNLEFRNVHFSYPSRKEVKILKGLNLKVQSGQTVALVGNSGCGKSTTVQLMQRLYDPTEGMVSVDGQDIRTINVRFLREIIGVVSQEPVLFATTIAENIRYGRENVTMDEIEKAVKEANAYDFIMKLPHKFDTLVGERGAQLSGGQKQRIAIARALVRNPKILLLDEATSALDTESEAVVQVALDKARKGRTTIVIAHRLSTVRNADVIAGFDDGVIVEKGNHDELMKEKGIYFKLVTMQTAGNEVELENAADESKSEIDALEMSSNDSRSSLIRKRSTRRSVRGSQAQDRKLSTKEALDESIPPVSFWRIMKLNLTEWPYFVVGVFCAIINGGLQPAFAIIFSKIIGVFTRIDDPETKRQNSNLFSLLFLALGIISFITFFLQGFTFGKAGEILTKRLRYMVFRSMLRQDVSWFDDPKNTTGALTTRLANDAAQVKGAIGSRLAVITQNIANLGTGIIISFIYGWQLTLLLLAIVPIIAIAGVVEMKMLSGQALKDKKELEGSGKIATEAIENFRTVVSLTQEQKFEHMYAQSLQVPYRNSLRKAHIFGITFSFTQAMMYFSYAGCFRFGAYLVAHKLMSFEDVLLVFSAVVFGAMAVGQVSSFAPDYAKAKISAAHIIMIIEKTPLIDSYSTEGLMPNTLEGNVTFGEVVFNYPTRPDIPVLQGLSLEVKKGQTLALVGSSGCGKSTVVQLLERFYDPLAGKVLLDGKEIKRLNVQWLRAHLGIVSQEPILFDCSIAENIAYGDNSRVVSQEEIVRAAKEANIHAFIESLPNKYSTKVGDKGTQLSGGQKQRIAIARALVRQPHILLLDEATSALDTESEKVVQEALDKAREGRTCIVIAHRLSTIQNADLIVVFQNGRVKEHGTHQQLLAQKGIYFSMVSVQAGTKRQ
# [12] = target: T4, ATP-dependent translocase ABCB1; experiment: ABCB1 efflux inhibitor potency, dose response, Jurkat-DNR cells, JC-1, flow cytometry, set 2 (AID 504569); type: functional; settings: read-out: EC50_MICROM_;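 also: potency of pump inhibitors that raise cellular JC-1 green fluorescence up to the nicardipine level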
# [13] = growth suppression of PTEN-null colon cells, dose response, cell-based, HCT116 PTEN knockout (AID 1047); type: functional;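 also: HCT116 colon tumor cells with PTEN knocked out; cells exposed to compound for 60 hours before readout; potency for loss of cell viability measured by luminescence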
# [14] = growth suppression of beta-catenin-knockout colon cells, dose response, cell-based, HCT116, human colon tumor (AID 1045); type: functional;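 also: HCT116 colon tumor cells with beta catenin knocked out; cells exposed to compound for 60 hours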
# [15] = target: Tyrosine-protein phosphatase non-receptor type 11 (Homo sapiens, UniProt Q06124); experiment: SHP2 phosphatase inhibition, dose response, selectivity assay for STEP inhibitor project, biochemical (AID 602367); type: functional; settings: read-out: IC50_Mean
# [16] = target: Tyrosine-protein phosphatase non-receptor type 5 (Homo sapiens, UniProt P54829); experiment: STEP phosphatase inhibitors, confirmation, biochemical, fluorescence intensity, uHTS hits (AID 602372); type: functional; settings: read-out: IC50_Mean
# Chain of Tyrosine-protein phosphatase non-receptor type 5 (P54829 whole entry): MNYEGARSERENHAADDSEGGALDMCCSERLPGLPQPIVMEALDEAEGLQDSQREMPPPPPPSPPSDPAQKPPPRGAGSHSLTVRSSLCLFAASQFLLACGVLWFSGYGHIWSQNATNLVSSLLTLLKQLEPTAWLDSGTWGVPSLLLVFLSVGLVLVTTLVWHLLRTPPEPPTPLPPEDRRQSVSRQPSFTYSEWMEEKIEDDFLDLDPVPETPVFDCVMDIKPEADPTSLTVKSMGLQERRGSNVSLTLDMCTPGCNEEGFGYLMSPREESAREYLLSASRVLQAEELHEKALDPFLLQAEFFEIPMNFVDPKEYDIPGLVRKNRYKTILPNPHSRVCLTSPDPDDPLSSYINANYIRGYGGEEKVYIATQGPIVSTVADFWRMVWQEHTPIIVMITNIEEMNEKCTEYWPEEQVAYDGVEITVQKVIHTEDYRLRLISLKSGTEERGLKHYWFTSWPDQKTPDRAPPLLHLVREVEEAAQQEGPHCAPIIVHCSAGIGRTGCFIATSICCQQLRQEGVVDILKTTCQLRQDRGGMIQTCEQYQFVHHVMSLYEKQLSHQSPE
# [17] = target: Dual specificity protein phosphatase 3 (Homo sapiens, UniProt P51452); experiment: VHR phosphatase inhibition, dose response, selectivity assay for STEP inhibitor project, biochemical (AID 602374); type: functional; settings: read-out: IC50_Mean
# Chain of Dual specificity protein phosphatase 3 (P51452 whole entry): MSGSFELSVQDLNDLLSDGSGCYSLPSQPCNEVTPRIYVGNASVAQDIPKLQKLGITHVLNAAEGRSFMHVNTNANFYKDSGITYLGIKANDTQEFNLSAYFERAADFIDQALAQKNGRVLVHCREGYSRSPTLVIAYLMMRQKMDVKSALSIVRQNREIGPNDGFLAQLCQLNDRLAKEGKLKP
# [18] = target: T5, Tyrosine-protein phosphatase non-receptor type 22 (Homo sapiens, UniProt Q9Y2R2); experiment: PTPN22 phosphatase inhibition, dose response, selectivity assay for STEP inhibitor project, biochemical (AID 624241); type: functional
# T5 sequence (Q9Y2R2 whole entry): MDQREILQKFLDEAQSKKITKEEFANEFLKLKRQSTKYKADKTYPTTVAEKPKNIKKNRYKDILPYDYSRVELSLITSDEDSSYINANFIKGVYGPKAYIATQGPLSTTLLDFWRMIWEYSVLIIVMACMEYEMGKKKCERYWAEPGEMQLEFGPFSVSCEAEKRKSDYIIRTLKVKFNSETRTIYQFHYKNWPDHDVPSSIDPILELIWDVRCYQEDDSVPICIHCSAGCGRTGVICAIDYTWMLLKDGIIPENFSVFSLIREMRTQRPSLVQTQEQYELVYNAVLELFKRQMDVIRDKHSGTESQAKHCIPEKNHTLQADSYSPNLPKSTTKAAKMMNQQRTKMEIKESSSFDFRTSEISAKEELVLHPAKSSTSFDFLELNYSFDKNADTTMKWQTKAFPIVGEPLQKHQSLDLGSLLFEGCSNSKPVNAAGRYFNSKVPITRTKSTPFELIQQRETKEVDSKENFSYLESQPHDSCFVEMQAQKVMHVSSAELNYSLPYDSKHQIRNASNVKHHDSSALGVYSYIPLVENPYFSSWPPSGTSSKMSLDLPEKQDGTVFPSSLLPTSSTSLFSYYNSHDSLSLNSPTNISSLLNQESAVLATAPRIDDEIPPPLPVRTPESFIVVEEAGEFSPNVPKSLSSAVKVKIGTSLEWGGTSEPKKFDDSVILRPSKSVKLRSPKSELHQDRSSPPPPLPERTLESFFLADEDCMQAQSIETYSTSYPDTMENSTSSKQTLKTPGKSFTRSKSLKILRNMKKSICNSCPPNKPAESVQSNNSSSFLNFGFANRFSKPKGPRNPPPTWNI
# [19] = target: Hepatocyte nuclear factor 4-alpha (Homo sapiens, UniProt P41235); type: functional, cell-based;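 also: biochemical luminescence-based dose-response counterscreen measuring inhibition of HNF4 dimerization, run alongside a screen for blockers of ABHD5–perilipin-5 interaction; split luciferase complementation of HNF4 fusion proteins in cell lysate measuring dimerization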
# Chain of Hepatocyte nuclear factor 4-alpha (P41235 whole entry, the tested form may be a part): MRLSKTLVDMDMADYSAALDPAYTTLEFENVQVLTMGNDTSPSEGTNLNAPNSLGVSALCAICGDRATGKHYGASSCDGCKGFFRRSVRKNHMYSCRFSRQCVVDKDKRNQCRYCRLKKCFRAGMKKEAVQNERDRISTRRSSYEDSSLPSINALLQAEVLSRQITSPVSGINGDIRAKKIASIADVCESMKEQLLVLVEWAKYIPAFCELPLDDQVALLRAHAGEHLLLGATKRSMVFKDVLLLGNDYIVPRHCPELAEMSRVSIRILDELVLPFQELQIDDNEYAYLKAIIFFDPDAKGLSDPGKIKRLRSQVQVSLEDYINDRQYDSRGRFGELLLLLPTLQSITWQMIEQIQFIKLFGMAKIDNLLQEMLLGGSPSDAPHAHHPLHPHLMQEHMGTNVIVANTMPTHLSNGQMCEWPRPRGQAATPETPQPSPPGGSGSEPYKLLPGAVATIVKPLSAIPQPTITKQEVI
# [20] = target: Potassium voltage-gated channel subfamily KQT member 2 (Rattus norvegicus, UniProt O88943); experiment: KCNQ2 potassium channel inhibitors, dose response, cell-based, automated electrophysiology, set II, rat KCNQ2 (AID 588637); type: functional
compound,measurement,setting,value
Cc1c(C)c2c(OCC(=O)N3CCC[C@H]3C(=O)O)cc3c(c2oc1=O)CCC(C)(C)O3,IC50,Beta-lactamase [1],> 59.6 µM (inactive)
same,IC50,Beta-lactamase [2],> 59.6 µM (inactive)
same,IC50,Beta-lactamase [3],> 59.6 µM (inactive)
COc1ccc(CN2C(=O)NC(=O)/C(=C\c3ccco3)C2=O)cc1,IC50,[4],3.34 µM (active)
same,IC50,[5],3.91 µM (active)
same,IC50,[6],12.3 µM (active)
same,IC50,[7],26.5 µM (active)
same,IC50,[8],12.7 µM (active)
same,IC50,Prothrombin,54.1 µM (active)
same,AC50,[9],12.8 µM (active)
Sc1nnc(C2CCCCC2)n1/N=C/c1ccccc1Br,IC50,[10],155 µM (inactive)
O=C(c1ccoc1)N1CCN(c2cc(-c3ccccc3)nc3cc(-c4ccccc4)nn23)CC1,EC50,[11],2.02 µM (active)
same,EC50,[12],1.79 µM (active)
CCOc1ccc(C(=O)Nc2cc(-c3nc4ccccc4[nH]3)ccc2Cl)cc1[N+](=O)[O-],EC50,[13],8.7 µM (active)
same,EC50,[14],8.99 µM (active)
same,IC50,[15],2.14 µM (active)
same,IC50,[16],6.73 µM (active)
same,IC50,[17],3.11 µM (active)
same,IC50,[18],29.9 µM (inactive)
CCOc1cc(N)c(Cl)cc1C(=O)NCC1CN(Cc2ccc(F)cc2)CCO1 (stereo unspecified) [MOSAPRIDE CITRATE],IC50,[19],12.7 µM (inactive)
COc1ccc(CCN(C)C(=O)c2cc(-c3ccccc3)nc3ccc(C)cc23)cc1OC,IC50,[20],0.478 µM (active)
